COc1cc(NS(=O)(=O)c2ccc(N)cc2)ncn1
Conditions	solubility (mole fraction)
in acetone, 299.05 K	0.00789
in acetone, 303.3 K	0.00849
in acetone, 308.2 K	0.00935
in acetone, 313.15 K	0.0105
in acetone, 318.05 K	0.0112
in acetone, 323.05 K	0.0124
in ethanol, 297.95 K	0.000496
in ethanol, 310.95 K	0.000859
in ethanol, 317.65 K	0.00109
in ethanol, 327.95 K	0.00161
in ethanol, 337.85 K	0.00243
in ethanol, 347.15 K	0.00356
in ethyl acetate, 300.65 K	0.00114
in ethyl acetate, 308.2 K	0.00131
in ethyl acetate, 316.05 K	0.00146
in ethyl acetate, 324 K	0.00169
in ethyl acetate, 331.95 K	0.00184
in ethyl acetate, 339.8 K	0.00205
in methanol, 294.55 K	0.000735
in methanol, 303.15 K	0.000951
in methanol, 309.95 K	0.00117
in methanol, 317.75 K	0.00164
in methanol, 325.85 K	0.00221
in methanol, 332.65 K	0.00284
in n-butanol, 305.2 K	0.000117
in n-butanol, 318.05 K	0.000288
in n-butanol, 327.85 K	0.000607
in n-butanol, 339.85 K	0.00121
in n-butanol, 352.55 K	0.0029
in n-butanol, 362.15 K	0.00479
in n-propanol, 300.25 K	0.000233
in n-propanol, 308.15 K	0.00037
in n-propanol, 318.05 K	0.000598
in n-propanol, 327.95 K	0.00102
in n-propanol, 342.75 K	0.00198
in n-propanol, 352.45 K	0.00353
in n-propanol, 361.85 K	0.00556
